Assay results from article PMC12313567 (Frontiers in Cellular and Infection Microbiology, 2025).

Legend:
E. faecalis = test: Antimicrobial test, broth microdilution MIC; type: cell-based, Enterococcus faecalis (ATCC 29212); conditions: Enterococcus faecalis, 24 hours, read-out: Minimum inhibitory concentration, E. faecalis
Procedure: (§1) This study used standard strains of bacteria known to be resistant to antibiotics. These isolates were identified as three gram-positive bacteria: Bacillus subtilis, Staphylococcus aureus (ATCC 29213) and Enterococcus faecalis (ATCC 29212); and two Gram-negative bacteria: Escherichia coli (ATCC 25922) and Pseudomonas aeruginosa (ATCC 27853). The strains were grown in blood medium one night before the broth microdilution method was used. They were then passaged and stored in tryptic soy broth (TSB) at -20°C for repeat experiments. Bacterial strains were passaged in blood medium and incubated in an oven at 35 ± 2°C for 18–24 hours. At least 3–5 similar colonies were selected from the culture plate. These were picked up with a loop and transferred to 4–5 mL of liquid medium (e.g. tryptic soy broth). The broth was incubated at 35°C until the turbidity reached McFarland 0.5 (approximately 2–6 hours). The density of the culture in the broth was determined by preparing a bacterial solution with a McFarland density of 0.5. The microdilution method was used to determine MIC values. Standards were dissolved in DMSO. Positive controls were prepared with penicillin, fluconazole and gentamicin.
(§2) It was prepared at concentrations of 1, 2, 4, 8, 16, 32, 64, 128, 256 and 512 µg/mL. 1% DMSO was used as a solvent control. Compounds were spiked at initial test control concentrations of 250 µg/mL in MHB. MHB was added to all wells except the first well. 100 µl of compounds were added to the first well. Serial dilutions were then made and diluted to the minimum concentration (1 µg/ml). Then 0.5 McFarland was prepared from bacteria incubated in MHB for 1 night. Then 50 µl of bacterial suspension was added to each well. The plates were incubated at 37°C for 24 hours. The microplates were then read in the spectrophotometer at a wavelength of 620 nm.
(§3) 100 µl of MHB was added to each well of a 12-well U-bottom microplate. 100 μL of the previously prepared NHC precursor drug was taken and transferred to the first well, and 100 μL was taken again by pipetting and transferred to the second well. In this way, dilutions were made sequentially up to the 11th well. No NHC precursor was added to the 12th well, which was used as a positive control. Then 100 μL of the prepared 5 x 10^5 CFU/mL bacterial suspension was taken and added to all wells without adding to the 11th well. The 11th well was used as a negative control ([Demirhan et al., 2024]). The same study was performed for all NHC precursors. The microplates were then incubated at 35°C for 24 hours. The lowest concentration at which no growth occurred for all strains was determined as the MIC.

AChE = AChE (Homo sapiens, UniProt P22303); test: biochemical; conditions: for Ki: Lineweaver-Burk curves; for Ki / IC50: means of triplicate assays ± SEM; for AChE inhibition type: from Lineweaver-Burk curves; for IC50: 30°C
Procedure: Reaction mixtures contained the 50 μL of 5,5′-dithio-bis(2-nitro-benzoic)acid compound (DTNB) and 100 μL of Tris–HCl solution (1 M, pH 8.0), and 20 μL AChE solution in total volume of 1 mL. The mixture was then incubated and mixed for 15 min at 30°C. Next, The reaction was started by adding 50 μL of acetylthiocholine iodide, and carried out for 5 min at 30°C. After adding substrate, the change in absorbance at 0 and 5 minutes was recorded at 412 nm.
AChE activities were determined at 30°C by using five concentrations of acetylthiocholine iodide and three concentrations of compounds.

P. aeruginosa = test: Antimicrobial test, broth microdilution MIC; type: cell-based, Pseudomonas aeruginosa (ATCC 27853); conditions: Pseudomonas aeruginosa, 24 hours, read-out: Minimum inhibitory concentration, P. aeruginosa
Procedure: as §1, §2, §3

E. coli = test: Antimicrobial test, broth microdilution MIC; type: cell-based, Escherichia coli (ATCC 25922); conditions: Escherichia coli, 24 hours, read-out: Minimum inhibitory concentration, E. coli
Procedure: as §1, §2, §3

S. aureus = test: Antimicrobial test, broth microdilution MIC; type: cell-based, Staphylococcus aureus (ATCC 29213); conditions: Staphylococcus aureus, 24 h, read-out: Minimum inhibitory concentration, S. aureus
Procedure: as §1, §2, §3

Sequence of AChE (P22303 32-614): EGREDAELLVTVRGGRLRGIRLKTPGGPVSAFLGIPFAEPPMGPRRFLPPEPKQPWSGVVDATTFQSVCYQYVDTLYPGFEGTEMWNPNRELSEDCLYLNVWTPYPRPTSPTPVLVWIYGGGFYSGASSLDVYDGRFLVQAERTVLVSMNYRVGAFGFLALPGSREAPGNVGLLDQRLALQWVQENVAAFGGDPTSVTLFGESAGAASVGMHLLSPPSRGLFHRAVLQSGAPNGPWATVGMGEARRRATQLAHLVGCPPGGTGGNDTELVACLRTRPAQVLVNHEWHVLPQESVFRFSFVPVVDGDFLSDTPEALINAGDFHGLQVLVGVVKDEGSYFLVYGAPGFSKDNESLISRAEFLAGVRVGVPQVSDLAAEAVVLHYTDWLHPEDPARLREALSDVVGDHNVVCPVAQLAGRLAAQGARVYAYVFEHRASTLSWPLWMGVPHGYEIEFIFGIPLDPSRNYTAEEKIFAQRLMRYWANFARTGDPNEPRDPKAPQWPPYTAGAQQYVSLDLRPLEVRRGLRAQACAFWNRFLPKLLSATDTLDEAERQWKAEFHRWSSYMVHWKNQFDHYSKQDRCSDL

Compound	MIC (E. faecalis) [µg/mL]	Ki (AChE) [nM]	AChE inhibition type (AChE)	IC50 (AChE) [nM]	MIC (P. aeruginosa) [µg/mL]	MIC (E. coli) [µg/mL]	MIC (S. aureus) [µg/mL]
CC(=O)c1ccc(-n2cc[n+](CCN3CCOCC3)c2)cc1.Cl.[Cl-] [Compound 1a, 1-(4-acetylphenyl)-3-(2-morpholino)ethylimidazolium chloride hydrochloride]	50	11200 ± 1050	Uncompetitive	14800 ± 820	200	200	25
CC(=O)c1ccc(-n2cc[n+](CCN3CCCCC3)c2)cc1.Cl.[Cl-] [Compound 1b, 1-(4-acetylphenyl)-3-(2-piperidino)ethylimidazolium chloride hydrochloride]	50	1690 ± 80	Uncompetitive	2210 ± 160	200	200	12.5
CC(=O)c1ccc(-n2cc[n+](CCN3CCCC3)c2)cc1.Cl.[Cl-] [Compound 1c, 1-(4-acetylphenyl)-3-(2-pyrrolidino)ethylimidazolium chloride hydrochloride]	50	8050 ± 720	Uncompetitive	10500 ± 1080	25	50	25
Br.CC(=O)c1ccc(-n2cc[n+](Cc3ccccn3)c2)cc1.[Br-] [Compound 1d, 1-(4-acetylphenyl)-3-(pyridin-2-yl)methylimidazolium bromide hydrobromide]	10	800 ± 60	Uncompetitive	1050 ± 70	200	50	50
Cl.O=Cc1ccc(-n2cc[n+](CCN3CCOCC3)c2)cc1.[Cl-] [Compound 2a, 1-(4-formylphenyl)-3-(2-morpholino)ethylimidazolium chloride hydrochloride]	250	660 ± 30	Uncompetitive	870 ± 60	200	200	250
Cl.O=Cc1ccc(-n2cc[n+](CCN3CCCCC3)c2)cc1.[Cl-] [Compound 2b, 1-(4-formylphenyl)-3-(2-piperidino)ethylimidazolium chloride hydrochloride]	50	780 ± 50	Uncompetitive	1020 ± 80	200	100	250
Cl.O=Cc1ccc(-n2cc[n+](CCN3CCCC3)c2)cc1.[Cl-] [Compound 2c, 1-(4-formylphenyl)-3-(2-pyrrolidino)ethylimidazolium chloride hydrochloride]	50	3160 ± 240	Uncompetitive	4130 ± 250	200	200	100
Br.O=Cc1ccc(-n2cc[n+](Cc3ccccn3)c2)cc1.[Br-] [Compound 2d, 1-(4-formylphenyl)-3-(pyridin-2-yl)methylimidazolium bromide hydrobromide]	100	630 ± 40	Uncompetitive	820 ± 60	200	200	250
